From patent US20240067693A1, “POLYPEPTIDES AND USES THEREOF” (MEDIMMUNE LIMITED, priority 2020, published 2024)
Numbered stars: 1 amine (or outer) side, 2 acyl side, 3 side chain; on linkers, the order of the positions; unused ones are H or OH. Bridge positions count the residues as written; N and C are the ends. Square brackets hold non-standard residues; d marks the D form. Side chains are listed from the residue outwards. Peptide text beside a SMILES is read from it. * marks the point of attachment. C18 diacid = O=C(O)CCCCCCCCCCCCCCCCC(=O)*; γGlu = O=C(O)[C@H](CCC(=O)[*:2])N[*:1]; Aib = CC(C)(N)C(=O)O

Legend:
[1] = molecular target: T1, human calcitonin receptor (hCTR) (Homo sapiens, UniProt P30988); experiment: cAMP production in 1321N1 cells with stable recombinant expression of human calcitonin receptor (hCTR); assay type: cell-based; settings: cAMP, 1321N1 cells, assay buffer with 0.1% BSA; read-out: EC50 (pM) hCTR
T1 construct: expressed in transfected cells
T1 sequence (P30988 25-474): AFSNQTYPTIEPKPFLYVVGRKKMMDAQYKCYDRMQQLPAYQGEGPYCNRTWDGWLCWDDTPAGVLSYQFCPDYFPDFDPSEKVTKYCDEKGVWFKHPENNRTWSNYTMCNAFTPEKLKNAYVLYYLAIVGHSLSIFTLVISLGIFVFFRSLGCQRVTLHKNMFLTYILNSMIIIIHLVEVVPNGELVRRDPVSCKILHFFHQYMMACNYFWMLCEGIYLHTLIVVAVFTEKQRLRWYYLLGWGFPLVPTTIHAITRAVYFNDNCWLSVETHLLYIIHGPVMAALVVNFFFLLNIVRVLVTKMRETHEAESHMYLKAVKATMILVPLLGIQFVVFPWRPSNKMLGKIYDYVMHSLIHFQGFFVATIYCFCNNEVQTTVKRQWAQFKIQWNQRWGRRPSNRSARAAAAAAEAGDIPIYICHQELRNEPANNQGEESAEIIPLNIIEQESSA
Method in brief: (§1)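 Thawed cells in HBSS/0.1% BSA/25 mM HEPES pH 7.4 with 0.5 mM IBMX were incubated with peptides 30 min at room temperature; cAMP read by HTRF. EC50 from 4-parameter fit of % activation relative to maximal amylin or calcitonin effect.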

[2] = molecular target: T2, human amylin receptor (calcitonin receptor co-expressed with receptor activity modifying protein, RAMP3) (hAMYR3) (Homo sapiens, UniProt O60896+P30988); experiment: cAMP production in 1321N1 cells with stable recombinant expression of human amylin receptor (hAMYR3); assay type: cell-based; settings: for Ratio (selectivity hAMYR vs hCTR, ratio of EC50 values at the two receptors): EC50 hCTR / EC50 hAMYR3; for EC50: cAMP, 1321N1 cells, assay buffer with 0.1% BSA, read-out: EC50 (pM) hAMYR3
T2 construct: expressed in transfected cells
T2 sequence (P30988 25-474): T1 sequence (P30988 25-474)
T2 sequence (O60896 24-148 partner): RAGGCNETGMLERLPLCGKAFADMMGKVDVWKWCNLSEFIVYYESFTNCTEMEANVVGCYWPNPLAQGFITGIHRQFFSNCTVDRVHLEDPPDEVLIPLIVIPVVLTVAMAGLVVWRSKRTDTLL
Method in brief: as §1

EC50 [1] [pM]	Ratio (selectivity hAMYR vs hCTR, ratio of EC50 values at the two receptors) [2]	EC50 [2] [pM]	SMILES
859	2	556	CC[C@H](C)[C@H](NC(=O)[C@@H]1CCCN1C(=O)CNC(=O)[C@H](Cc1ccccc1)NC(=O)[C@H](CC(N)=O)NC(=O)[C@H](CC(N)=O)NC(=O)[C@H](CO)NC(=O)[C@H](CO)NC(=O)[C@H](Cc1c[nH]cn1)NC(=O)C(C)(C)NC(=O)[C@H](CC(C)C)NC(=O)[C@H](Cc1ccccc1)NC(=O)[C@H](CC(N)=O)NC(=O)[C@H](C)NC(=O)[C@H](CC(C)C)NC(=O)[C@H](CCCNC(=N)N)NC(=O)[C@H](CCC(N)=O)NC(=O)[C@@H](NC(=O)[C@H](C)NC(=O)[C@@H]1CSSC[C@H](NC(=O)[C@H](CCCCN)NC(=O)[C@@H](N)CCCCNC(=O)CC[C@H](NC(=O)CCCCCCCCCCCCCCCCC(=O)O)C(=O)O)C(=O)N[C@@H](CC(N)=O)C(=O)N[C@@H]([C@@H](C)O)C(=O)N[C@@H](C)C(=O)N[C@@H]([C@@H](C)O)C(=O)N1)[C@@H](C)O)C(=O)N[C@@H](CC(C)C)C(=O)NC(C)(C)C(=O)N1CCC[C@H]1C(=O)N[C@H](C(=O)N[C@@H](CC(N)=O)C(=O)N[C@H](C(=O)NCC(=O)N[C@@H](CO)C(=O)N[C@@H](CC(N)=O)C(=O)N[C@H](C(=O)N[C@@H](Cc1ccc(O)cc1)C(N)=O)[C@@H](C)O)C(C)C)[C@@H](C)O [Peptide 96, K(γE-C18diacid)K[CNTATC]ATQRLANFL(Aib)HSSNNFGPIL(Aib)PTNVGSNTY-amide] (H-K([γGlu-C18 diacid])KCNTATCATQRLANFL[Aib]HSSNNFGPIL[Aib]PTNVGSNTY-NH2; disulfide 3-8; N-terminus assumed)
441	2	177	CC[C@H](C)[C@H](NC(=O)[C@@H]1CCCN1C(=O)CNC(=O)[C@H](Cc1ccccc1)NC(=O)[C@H](CC(N)=O)NC(=O)[C@H](CC(N)=O)NC(=O)[C@H](CO)NC(=O)[C@H](CO)NC(=O)[C@H](Cc1c[nH]cn1)NC(=O)C(C)(C)NC(=O)[C@H](CC(C)C)NC(=O)[C@H](Cc1ccccc1)NC(=O)[C@H](CC(N)=O)NC(=O)[C@H](C)NC(=O)[C@H](CC(C)C)NC(=O)[C@H](CCCNC(=N)N)NC(=O)[C@H](CCC(N)=O)NC(=O)[C@@H](NC(=O)[C@H](C)NC(=O)[C@@H]1CSSC[C@H](NC(=O)[C@H](CCCCN)NC(=O)[C@@H](N)CCCCNC(=O)CC[C@H](NC(=O)CCCCCCCCCCCCCCCCC(=O)O)C(=O)O)C(=O)N[C@@H](CC(N)=O)C(=O)N[C@@H]([C@@H](C)O)C(=O)N[C@@H](C)C(=O)N[C@@H]([C@@H](C)O)C(=O)N1)[C@@H](C)O)C(=O)N[C@@H](CC(C)C)C(=O)N1CCC[C@H]1C(=O)N1CCC[C@H]1C(=O)N[C@H](C(=O)N[C@@H](CC(N)=O)C(=O)N[C@H](C(=O)NCC(=O)NC(C)(C)C(=O)N[C@@H](CC(N)=O)C(=O)N[C@H](C(=O)N[C@@H](Cc1ccc(O)cc1)C(N)=O)[C@@H](C)O)C(C)C)[C@@H](C)O [Peptide 101, K(γE-C18diacid)K[CNTATC]ATQRLANFL(Aib)HSSNNFGPILPPTNVG(Aib)NTY-amide] (H-K([γGlu-C18 diacid])KCNTATCATQRLANFL[Aib]HSSNNFGPILPPTNVG[Aib]NTY-NH2; disulfide 3-8; N-terminus assumed)
101	0.8	122	CC[C@H](C)[C@H](NC(=O)[C@@H]1CCCN1C(=O)CNC(=O)[C@H](Cc1ccccc1)NC(=O)[C@H](CC(N)=O)NC(=O)[C@H](CC(N)=O)NC(=O)[C@H](CO)NC(=O)[C@H](CO)NC(=O)[C@H](Cc1c[nH]cn1)NC(=O)C(C)(C)NC(=O)[C@H](CC(C)C)NC(=O)[C@H](Cc1ccccc1)NC(=O)[C@H](CC(N)=O)NC(=O)[C@H](C)NC(=O)[C@H](CC(C)C)NC(=O)[C@H](CCCNC(=N)N)NC(=O)[C@H](CCC(N)=O)NC(=O)[C@@H](NC(=O)[C@H](C)NC(=O)[C@@H]1CSSC[C@H](NC(=O)[C@H](CCCCN)NC(=O)[C@@H](N)CCCCNC(=O)CC[C@H](NC(=O)CCCCCCCCCCCCCCCCC(=O)O)C(=O)O)C(=O)N[C@@H](CC(N)=O)C(=O)N[C@@H]([C@@H](C)O)C(=O)N[C@@H](C)C(=O)N[C@@H]([C@@H](C)O)C(=O)N1)[C@@H](C)O)C(=O)N[C@@H](CC(C)C)C(=O)N1CCC[C@H]1C(=O)N1CCC[C@H]1C(=O)N[C@H](C(=O)N[C@@H](CC(N)=O)C(=O)N[C@H](C(=O)NCC(=O)N[C@@H](CO)C(=O)N[C@@H](CC(N)=O)C(=O)N[C@H](C(=O)N1CCC[C@H]1C(N)=O)[C@@H](C)O)C(C)C)[C@@H](C)O [Peptide 136] (H-K([γGlu-C18 diacid])KCNTATCATQRLANFL[Aib]HSSNNFGPILPPTNVGSNTP-NH2; disulfide 3-8; N-terminus assumed)
18900	54	349	CC[C@H](C)[C@H](NC(=O)[C@@H]1CCCN1C(=O)CNC(=O)[C@H](Cc1ccccc1)NC(=O)[C@H](CC(N)=O)NC(=O)C(C)(C)NC(=O)[C@H](CO)NC(=O)[C@H](CO)NC(=O)[C@H](Cc1c[nH]cn1)NC(=O)[C@H](CCCNC(=N)N)NC(=O)[C@H](CC(C)C)NC(=O)[C@H](Cc1ccccc1)NC(=O)[C@H](CC(N)=O)NC(=O)[C@H](C)NC(=O)[C@H](CC(C)C)NC(=O)[C@H](CCCNC(=N)N)NC(=O)[C@H](CCC(N)=O)NC(=O)[C@@H](NC(=O)[C@H](C)NC(=O)[C@@H]1CSSC[C@H](NC(=O)[C@@H](N)CCCCNC(=O)CC[C@H](NC(=O)CC[C@H](NC(=O)CCCCCCCCCCCCCCCCC(=O)O)C(=O)O)C(=O)O)C(=O)N[C@@H](CC(N)=O)C(=O)N[C@@H]([C@@H](C)O)C(=O)N[C@@H](C)C(=O)N[C@@H]([C@@H](C)O)C(=O)N1)[C@@H](C)O)C(=O)N[C@@H](CC(C)C)C(=O)N1CCC[C@H]1C(=O)N1CCC[C@H]1C(=O)N[C@H](C(=O)N[C@@H](CCC(=O)O)C(=O)N[C@H](C(=O)NCC(=O)N[C@@H](CO)C(=O)N[C@@H](CC(N)=O)C(=O)N[C@H](C(=O)N[C@@H](Cc1ccc(O)cc1)C(N)=O)[C@@H](C)O)C(C)C)[C@@H](C)O [Peptide 50, K(γE-γE-C18diacid)[CNTATC]ATQRLANFLRHSS(Aib)NFGPILPPTEVGSNTY-amide] (H-K([γGlu-γGlu-C18 diacid])CNTATCATQRLANFLRHSS[Aib]NFGPILPPTEVGSNTY-NH2; disulfide 2-7; N-terminus assumed)
362	3	109	CC[C@H](C)[C@H](NC(=O)[C@@H]1CCCN1C(=O)CNC(=O)[C@H](Cc1ccccc1)NC(=O)[C@H](CC(N)=O)NC(=O)C(C)(C)NC(=O)[C@H](CO)NC(=O)[C@H](CO)NC(=O)[C@H](Cc1c[nH]cn1)NC(=O)[C@@H](NC(=O)[C@H](CC(C)C)NC(=O)[C@H](Cc1ccccc1)NC(=O)[C@H](Cc1c[nH]cn1)NC(=O)[C@H](C)NC(=O)[C@H](CC(C)C)NC(=O)[C@H](CCCNC(=N)N)NC(=O)[C@H](CCC(N)=O)NC(=O)[C@@H](NC(=O)[C@H](C)NC(=O)[C@@H]1CSSC[C@H](NC(=O)[C@H](CCCCN)NC(=O)[C@@H](N)CCCCNC(=O)CC[C@H](NC(=O)CCCCCCCCCCCCCCCCC(=O)O)C(=O)O)C(=O)N[C@@H](CC(N)=O)C(=O)N[C@@H]([C@@H](C)O)C(=O)N[C@@H](C)C(=O)N[C@@H]([C@@H](C)O)C(=O)N1)[C@@H](C)O)C(C)C)C(=O)N[C@@H](CC(C)C)C(=O)N1CCC[C@H]1C(=O)N1CCC[C@H]1C(=O)N[C@H](C(=O)N[C@@H](CC(N)=O)C(=O)N[C@H](C(=O)NCC(=O)N[C@@H](CO)C(=O)N[C@@H](CC(N)=O)C(=O)N[C@H](C(=O)N[C@@H](Cc1ccc(O)cc1)C(N)=O)[C@@H](C)O)C(C)C)[C@@H](C)O [Peptide 46, K(γE-C18diacid)K[CNTATC]ATQRLAHFLVHSS(Aib)NFGPILPPTNVGSNTY-amide] (H-K([γGlu-C18 diacid])KCNTATCATQRLAHFLVHSS[Aib]NFGPILPPTNVGSNTY-NH2; disulfide 3-8)
